Assay results from patent US7078386B2, “Enhancing agent for nerve growth factor production comprising a compound having a coumarin backbone or a compound having a 2-dimethyl chroman backbone” (Takara Bio, Inc., priority 2001, dated 2006).

Columns and labels:
[1] = test system: L-M cells (ATCC CCL-1.2) from murine fibroblasts; test: Enhancing activity for NGF production: NGF concentration in culture medium by enzyme immunoassay; assay type: cell-based; settings: 20 hours culture
Description: (2) The enhancing activity for NGF production was determined for the fraction 10 derived from root portions of Angelica keiskei koidz., of which structure was identified in item (1) of Example 1. L-M cells (ATCC CCL-1.2) from murine fibroblasts were suspended in an M199 medium (manufactured by ICN) containing 0.5% bactopeptone (manufactured by Gibco) so as to have a concentration of 1.5×10^5 cells/ml. The suspension was put in a 96 well plate in an amount of 0.1 ml each well, and the cells were aseptically cultured. After culturing the cells for 3 days, the medium was removed therefrom, and exchanged with an M199 medium containing 0.5% bovine serum albumin (manufactured by Sigma). The fraction 10 derived from root portions of Angelica keiskei koidz. was added as the sample thereto, and the cells were cultured for 20 hours. After the termination of the culture, the concentration of the NGF in the culture medium was assayed by an enzyme immunoassay method (NGF Emax Immuno Assay System, manufactured by Promega). The NGF concentration when added was expressed, assuming that the NGF concentration in the cell culture medium with no addition of the sample is 100%, whereby the enhancing activity for NGF production of the sample was evaluated. The experiment was carried out twice, and an average value was taken. As a result, it was clarified that the fraction 10 derived from root portions of Angelica keiskei koidz., namely 3′-O-β-D-glucopyranoyl khellactone, has an enhancing activity for NGF production.

rat = test: Single-dose oral administration toxicity in rat; assay type: in vivo; settings: orally administered, single dose at 1 g/kg of the body weight
Description: No toxicity is found when the above-mentioned effective ingredient usable in the present invention is administered in an amount effective for the exhibition of its action. […] Also, incidence of adverse actions is not found.

Q: How did the “Amount of NGF Produced” value ([1]; Table 6, sample 200 μM, no-sample control = 100% (0.668 ng/ml)) turn out when `COc1ccc(C(=O)C=Cc2ccc(O)cc2)c2c1CC(O)C(C)(C)O2` (stereo not drawn) [3-hydroxy-8-[3-(4-hydroxyphenyl)-acryloyl]-5-methoxy-2-dimethyl chroman] was run?
A: The value was 457.7%.

Q: And the cases of death (rat)?
A: The cases of death was “no cases of death”.

Q: Which “Amount of NGF Produced” value ([1]; Table 1, sample 2.00 mg/ml, no-sample control = 100% (0.382 ng/ml)) does the source give for `CC1(C)Oc2ccc3ccc(=O)oc3c2C(O)C1OC1OC(CO)C(O)C(O)C1O` [Fraction 10, 3′-O-β-D-glucopyranoyl khellactone] here?
A: The value was 565.5%.

Q: For `CC(C)=CCc1c(OC2OC(CO)C(O)C(O)C2O)ccc2ccc(=O)oc12` [Fraction 13-2, 7-O-β-D-glucopyranosyloxy-8-prenyl coumarin], which “Amount of NGF Produced” value ([1]; Table 2, sample 1.00 mg/ml, no-sample control = 100% (0.053 ng/ml)) is on record?
A: Its value is 792.1%.

Q: `COc1ccc(C(=O)O)c2c1CC(O)C(C)(C)O2` (stereo not drawn) [Fraction 18-4, 8-carboxyl-3-hydroxy-5-methoxy-2-dimethyl chroman] was tested. Which “Amount of NGF Produced” value ([1]; Table 3, sample 0.0375 mg/ml, no-sample control = 100% (0.027 ng/ml)) did it give?
A: The value was 2510.4%.

Q: And the cases of death (rat)?
A: Its cases of death is “no cases of death”.

Q: Which “Amount of NGF Produced” value ([1]; Table 4, sample 1.00 mg/ml, no-sample control = 100% (0.063 ng/ml)) does the source give for `CC(C)=CCc1cc2ccc(=O)oc2cc1O[C@@H]1O[C@H](CO)[C@@H](O)[C@H](O)[C@H]1O` [Fraction 19/20-5, 7-β-D-glucopyranosyloxy-6-prenyl coumarin] here?
A: Its value is 487.9%.

Q: With `C/C=C(/C)C(=O)OC1c2c(ccc3ccc(=O)oc23)OC(C)(C)C1O[C@@H]1O[C@H](CO[C@@H]2O[C@H](CO)[C@@H](O)[C@H](O)[C@H]2O)[C@@H](O)[C@H](O)[C@H]1O` (stereo partly drawn) [Fraction 19/20-6, 4′-O-angeloyl-3′-O-[6-O-(β-D-glucopyranosyl)-β-D-glucopyranosyl]-khellactone] as the compound, how does the “Amount of NGF Produced” value ([1]; Table 5, sample 1.00 mg/ml, no-sample control = 100% (0.063 ng/ml)) read?
A: Its value is 337.7%.

Q: And the cases of death (rat)?
A: The cases of death was “no cases of death”.
